# Measurements from ChEMBL document CHEMBL1201862, “PubChem BioAssay data set” (2004).
# Activity calls are given as the source filed them.
# Tests used:
# [1] = target: T1, Short transient receptor potential channel 4 (Mus musculus, UniProt Q9QUQ5); assay: block of DAMGO-driven TRPC4 calcium entry – cell-based, HEK293 TRPC4/mu-opioid, Fluo-4 calcium, dose response (AID 434942); type: functional;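 further: potency of inhibitors blocking the TRPC4 calcium response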
# T1 sequence (Q9QUQ5 whole entry): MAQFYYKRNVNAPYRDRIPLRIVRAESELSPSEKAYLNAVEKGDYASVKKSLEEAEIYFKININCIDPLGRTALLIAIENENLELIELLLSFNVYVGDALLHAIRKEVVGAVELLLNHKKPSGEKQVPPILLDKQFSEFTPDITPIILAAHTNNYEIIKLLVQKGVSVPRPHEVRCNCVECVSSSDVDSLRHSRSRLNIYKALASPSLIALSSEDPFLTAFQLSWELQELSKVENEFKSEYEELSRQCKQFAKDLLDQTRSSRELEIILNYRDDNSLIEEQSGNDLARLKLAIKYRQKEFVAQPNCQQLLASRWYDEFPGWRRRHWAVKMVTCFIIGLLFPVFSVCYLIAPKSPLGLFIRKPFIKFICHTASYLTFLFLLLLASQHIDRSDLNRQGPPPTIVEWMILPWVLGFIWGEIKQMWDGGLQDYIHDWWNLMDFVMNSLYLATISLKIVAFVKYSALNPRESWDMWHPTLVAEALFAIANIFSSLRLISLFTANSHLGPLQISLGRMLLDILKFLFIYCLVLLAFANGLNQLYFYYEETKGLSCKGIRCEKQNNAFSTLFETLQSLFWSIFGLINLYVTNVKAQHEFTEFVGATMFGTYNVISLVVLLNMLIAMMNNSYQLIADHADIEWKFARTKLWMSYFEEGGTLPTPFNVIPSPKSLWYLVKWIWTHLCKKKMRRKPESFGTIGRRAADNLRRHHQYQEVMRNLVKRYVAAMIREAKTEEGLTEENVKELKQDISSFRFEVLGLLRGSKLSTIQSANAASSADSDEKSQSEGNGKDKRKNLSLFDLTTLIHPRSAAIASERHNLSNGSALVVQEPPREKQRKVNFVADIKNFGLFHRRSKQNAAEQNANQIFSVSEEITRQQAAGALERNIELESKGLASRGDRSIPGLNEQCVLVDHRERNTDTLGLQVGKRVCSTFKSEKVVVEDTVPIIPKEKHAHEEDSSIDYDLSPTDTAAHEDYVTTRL
# Leucine aminopeptidase = target: T2, Leucine aminopeptidase (Plasmodium falciparum 3D7, UniProt Q8IL11); assay: P. falciparum M17LAP inhibitors, primary screen, biochemical, fluorogenic H-Leu-NHMec substrate, 1536-well (AID 1619); type: functional
# T2 sequence (Q8IL11 whole entry): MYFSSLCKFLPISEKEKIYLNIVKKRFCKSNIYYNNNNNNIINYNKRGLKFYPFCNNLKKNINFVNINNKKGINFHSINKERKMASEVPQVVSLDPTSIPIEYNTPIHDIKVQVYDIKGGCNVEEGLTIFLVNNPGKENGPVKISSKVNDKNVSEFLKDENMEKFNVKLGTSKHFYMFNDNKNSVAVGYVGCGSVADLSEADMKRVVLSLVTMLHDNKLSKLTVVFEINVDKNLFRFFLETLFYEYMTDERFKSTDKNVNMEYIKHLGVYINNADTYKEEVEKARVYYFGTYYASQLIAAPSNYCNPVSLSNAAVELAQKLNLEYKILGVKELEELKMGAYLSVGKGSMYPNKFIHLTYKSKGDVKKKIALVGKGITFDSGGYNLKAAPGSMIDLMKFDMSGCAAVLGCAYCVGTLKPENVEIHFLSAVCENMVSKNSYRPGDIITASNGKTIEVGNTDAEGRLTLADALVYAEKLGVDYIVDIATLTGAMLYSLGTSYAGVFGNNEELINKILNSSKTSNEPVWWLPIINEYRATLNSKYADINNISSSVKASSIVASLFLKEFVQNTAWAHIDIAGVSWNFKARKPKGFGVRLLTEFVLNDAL
# [2] = target: T3, High affinity choline transporter 1 (Homo sapiens, UniProt Q9GZV3); assay: human choline transporter blockers, potency – cell-based, 5-point CRC, membrane potential dye, dose response (AID 504840); type: functional
# T3 sequence (Q9GZV3 whole entry): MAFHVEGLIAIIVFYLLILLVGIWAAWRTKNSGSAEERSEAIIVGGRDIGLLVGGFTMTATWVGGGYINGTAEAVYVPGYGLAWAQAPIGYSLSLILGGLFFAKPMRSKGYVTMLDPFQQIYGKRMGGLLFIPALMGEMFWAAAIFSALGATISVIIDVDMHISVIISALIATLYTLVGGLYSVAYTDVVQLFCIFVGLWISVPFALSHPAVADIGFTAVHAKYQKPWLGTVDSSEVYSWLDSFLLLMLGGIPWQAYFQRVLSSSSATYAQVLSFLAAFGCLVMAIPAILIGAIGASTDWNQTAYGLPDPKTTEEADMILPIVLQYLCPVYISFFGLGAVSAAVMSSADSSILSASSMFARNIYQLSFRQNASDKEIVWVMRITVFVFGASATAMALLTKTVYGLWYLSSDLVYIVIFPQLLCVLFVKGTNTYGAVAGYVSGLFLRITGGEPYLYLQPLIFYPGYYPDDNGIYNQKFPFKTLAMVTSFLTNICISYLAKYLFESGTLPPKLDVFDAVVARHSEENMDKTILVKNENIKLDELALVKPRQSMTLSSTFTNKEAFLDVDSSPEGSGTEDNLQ
# [3] = Luminescence Cell-Based Dose Retest to Confirm Inhibitors of Cancer Stem Cells. [Related pubchem assays (depositor defined):AID2717, AID2721]; type: functional; conditions: Homo sapiens
# [4] = target: Alkaline phosphatase, placental type (Homo sapiens, UniProt P05187); assay: human placental alkaline phosphatase inhibition – biochemical, luminescence, confirmation (AID 1512); type: functional
# cells [5] = type: functional, cell-based
# cells [6] = type: functional, cell-based; remark: listed apart in the source
# Large T antigen = Large T antigen (Simian virus 40, UniProt P03070); type: functional, Betapolyomavirus macacae;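 further: Confirmatory-stage PubChem screen for compounds that inhibit SV40 T antigen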
# Cytochrome P450 1A2 = target: T4, Cytochrome P450 1A2 (Homo sapiens, UniProt P05177);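 further: PubChem cytochrome P450 panel assay, CYP1A2 panel member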
# T4 sequence (P05177 whole entry): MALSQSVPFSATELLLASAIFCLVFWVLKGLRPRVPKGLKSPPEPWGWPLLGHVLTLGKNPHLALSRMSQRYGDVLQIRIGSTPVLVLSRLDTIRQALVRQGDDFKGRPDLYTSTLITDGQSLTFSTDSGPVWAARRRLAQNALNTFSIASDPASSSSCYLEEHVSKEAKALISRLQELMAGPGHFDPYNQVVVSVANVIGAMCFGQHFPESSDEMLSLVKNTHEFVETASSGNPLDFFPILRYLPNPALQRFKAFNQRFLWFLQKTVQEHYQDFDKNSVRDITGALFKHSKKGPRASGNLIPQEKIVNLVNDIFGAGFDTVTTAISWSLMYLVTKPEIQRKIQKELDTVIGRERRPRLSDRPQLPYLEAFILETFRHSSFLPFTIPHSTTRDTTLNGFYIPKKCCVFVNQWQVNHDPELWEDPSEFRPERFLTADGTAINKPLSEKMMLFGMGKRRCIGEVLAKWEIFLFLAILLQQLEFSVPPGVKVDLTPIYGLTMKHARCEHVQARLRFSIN
# Cytochrome P450 2C9 = Cytochrome P450 2C9 (Homo sapiens, UniProt P11712)
# [7] = target: T5, Zinc finger protein mex-5 (Caenorhabditis elegans, UniProt Q9XUB2); assay: potency of MEX-5 RNA-binding blockers – biochemical, C. elegans, fluorescence polarization, dose response (AID 1960)
# T5 sequence (Q9XUB2 whole entry): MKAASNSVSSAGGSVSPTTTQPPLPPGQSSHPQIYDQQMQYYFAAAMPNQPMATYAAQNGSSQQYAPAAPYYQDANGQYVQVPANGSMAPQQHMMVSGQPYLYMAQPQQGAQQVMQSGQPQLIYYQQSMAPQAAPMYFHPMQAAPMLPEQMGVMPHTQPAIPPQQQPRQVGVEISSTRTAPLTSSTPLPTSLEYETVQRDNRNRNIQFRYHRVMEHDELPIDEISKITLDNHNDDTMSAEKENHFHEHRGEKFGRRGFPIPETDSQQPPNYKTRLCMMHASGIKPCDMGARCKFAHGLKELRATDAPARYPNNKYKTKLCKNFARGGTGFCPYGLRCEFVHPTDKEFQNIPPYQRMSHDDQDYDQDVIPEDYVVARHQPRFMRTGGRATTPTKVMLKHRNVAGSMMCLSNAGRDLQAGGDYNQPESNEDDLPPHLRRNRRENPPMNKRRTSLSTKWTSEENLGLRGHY
# [8] = target: T6, RNA-binding protein pos-1 (Caenorhabditis elegans, UniProt G5EF15); assay: disruptors of C. elegans POS-1 RNA interaction – biochemical, fluorescence polarization, dose response (AID 1964);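 further: purified POS-1 fused to maltose binding protein made in E. coli; potency of compounds blocking POS-1 binding to fluorescent RNA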
# T6 sequence (G5EF15 whole entry): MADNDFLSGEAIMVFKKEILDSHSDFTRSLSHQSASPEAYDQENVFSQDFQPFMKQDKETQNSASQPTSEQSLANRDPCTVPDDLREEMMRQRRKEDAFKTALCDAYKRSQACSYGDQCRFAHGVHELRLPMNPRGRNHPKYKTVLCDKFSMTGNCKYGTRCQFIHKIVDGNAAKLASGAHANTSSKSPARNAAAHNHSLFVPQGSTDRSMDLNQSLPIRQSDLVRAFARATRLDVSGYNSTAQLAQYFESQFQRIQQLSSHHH
# [9] = alpha-synuclein stem-loop luciferase translation blockers – H4 neuroglioma cells, luminescence, confirmation (AID 1988); type: functional, cell-based
# [10] = luciferase reporter signal suppression in cells – H4 neuroglioma cells, luminescence, dose response (AID 1990); type: functional, cell-based
# [11] = Luminescence Cell-Based Dose Response HTS to Identify Inhibitors of 5'UTR Stem-Loop Driven Prion Protein mRNA Translation in H4 Neuroglioblastoma Cells. [Related pubchem assays: 1827 (Project Summary), 1813 (Primary HTS)]; type: functional
# [12] = target: T7, Calpain-2 catalytic subunit (Sus scrofa, UniProt P43367); assay: m-calpain protease blockers, concentration series – biochemical, fluorogenic peptide substrate, dose response (AID 1420); type: functional
# T7 sequence (P43367 whole entry): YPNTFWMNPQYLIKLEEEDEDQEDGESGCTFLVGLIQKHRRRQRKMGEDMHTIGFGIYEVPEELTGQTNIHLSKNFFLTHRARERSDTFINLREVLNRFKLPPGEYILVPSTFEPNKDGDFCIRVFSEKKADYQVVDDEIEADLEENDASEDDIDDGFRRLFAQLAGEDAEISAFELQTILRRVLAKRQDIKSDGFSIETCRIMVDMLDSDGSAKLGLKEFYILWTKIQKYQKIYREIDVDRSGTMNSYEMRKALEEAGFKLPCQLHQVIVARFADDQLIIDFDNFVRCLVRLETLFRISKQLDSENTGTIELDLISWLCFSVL
# Genome polyprotein = Genome polyprotein (dengue virus type 2, UniProt P29990); assay: flavivirus cap methylation enzyme inhibition – biochemical, confirmation dose response, primary screen (AID 588689); type: functional
# Genome polyprotein, sequence (P29990 2492-3391 limits assumed): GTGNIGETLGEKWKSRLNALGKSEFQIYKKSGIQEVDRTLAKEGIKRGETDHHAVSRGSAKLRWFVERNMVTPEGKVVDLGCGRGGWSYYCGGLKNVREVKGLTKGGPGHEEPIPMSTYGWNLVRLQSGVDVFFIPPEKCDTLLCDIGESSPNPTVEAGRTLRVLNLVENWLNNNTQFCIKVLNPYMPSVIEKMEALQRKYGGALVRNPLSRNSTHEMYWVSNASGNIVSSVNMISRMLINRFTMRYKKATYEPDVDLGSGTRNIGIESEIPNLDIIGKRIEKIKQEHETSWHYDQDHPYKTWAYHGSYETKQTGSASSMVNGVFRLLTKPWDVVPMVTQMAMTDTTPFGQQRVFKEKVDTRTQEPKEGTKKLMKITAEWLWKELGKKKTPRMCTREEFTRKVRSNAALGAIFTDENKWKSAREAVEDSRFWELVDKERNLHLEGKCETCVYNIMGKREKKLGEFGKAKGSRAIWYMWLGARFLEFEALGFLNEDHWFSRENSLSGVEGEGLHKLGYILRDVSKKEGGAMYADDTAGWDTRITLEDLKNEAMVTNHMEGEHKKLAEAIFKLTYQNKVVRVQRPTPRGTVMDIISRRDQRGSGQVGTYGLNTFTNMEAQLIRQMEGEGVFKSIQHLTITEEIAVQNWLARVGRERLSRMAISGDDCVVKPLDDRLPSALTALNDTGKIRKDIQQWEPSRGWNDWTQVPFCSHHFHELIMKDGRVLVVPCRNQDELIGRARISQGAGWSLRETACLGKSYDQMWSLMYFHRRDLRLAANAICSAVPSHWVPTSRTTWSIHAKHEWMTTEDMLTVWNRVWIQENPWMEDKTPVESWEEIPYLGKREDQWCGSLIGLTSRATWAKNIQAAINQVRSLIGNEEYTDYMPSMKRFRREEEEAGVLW
# Alkaline phosphatase, placental type, sequence (P05187 whole entry): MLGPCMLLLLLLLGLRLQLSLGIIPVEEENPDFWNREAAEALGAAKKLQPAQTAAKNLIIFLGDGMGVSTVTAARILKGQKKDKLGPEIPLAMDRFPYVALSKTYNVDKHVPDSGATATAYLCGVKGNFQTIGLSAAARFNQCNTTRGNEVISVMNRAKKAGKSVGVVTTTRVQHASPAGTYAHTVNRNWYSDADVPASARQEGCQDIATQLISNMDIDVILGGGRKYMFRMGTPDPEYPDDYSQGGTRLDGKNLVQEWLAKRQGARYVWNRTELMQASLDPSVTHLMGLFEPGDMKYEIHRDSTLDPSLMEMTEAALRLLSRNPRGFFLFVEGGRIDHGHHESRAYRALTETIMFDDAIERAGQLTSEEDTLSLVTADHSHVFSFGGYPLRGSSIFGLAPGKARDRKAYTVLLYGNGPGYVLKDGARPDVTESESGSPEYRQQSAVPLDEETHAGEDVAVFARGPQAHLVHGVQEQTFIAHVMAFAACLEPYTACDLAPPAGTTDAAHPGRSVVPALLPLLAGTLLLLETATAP
# Large T antigen, sequence (P03070 whole entry): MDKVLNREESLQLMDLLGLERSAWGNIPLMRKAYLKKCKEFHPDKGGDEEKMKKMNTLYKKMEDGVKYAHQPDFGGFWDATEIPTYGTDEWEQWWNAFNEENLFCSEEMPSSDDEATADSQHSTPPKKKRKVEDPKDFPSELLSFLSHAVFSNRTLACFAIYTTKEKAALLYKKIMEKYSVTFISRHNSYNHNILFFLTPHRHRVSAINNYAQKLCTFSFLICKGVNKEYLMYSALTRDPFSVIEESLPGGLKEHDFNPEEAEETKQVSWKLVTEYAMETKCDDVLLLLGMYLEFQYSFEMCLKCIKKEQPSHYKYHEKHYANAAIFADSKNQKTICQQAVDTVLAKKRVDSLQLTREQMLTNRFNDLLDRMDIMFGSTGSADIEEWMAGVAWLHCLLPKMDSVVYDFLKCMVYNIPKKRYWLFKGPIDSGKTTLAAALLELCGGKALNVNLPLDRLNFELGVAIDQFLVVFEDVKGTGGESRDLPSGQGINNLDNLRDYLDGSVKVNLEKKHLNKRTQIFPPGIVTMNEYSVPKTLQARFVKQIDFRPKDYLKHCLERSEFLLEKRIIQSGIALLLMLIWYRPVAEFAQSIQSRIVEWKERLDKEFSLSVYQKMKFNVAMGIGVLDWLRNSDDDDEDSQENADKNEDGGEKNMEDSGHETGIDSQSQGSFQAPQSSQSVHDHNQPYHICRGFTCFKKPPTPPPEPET
# Cytochrome P450 2C9, sequence (P11712 whole entry): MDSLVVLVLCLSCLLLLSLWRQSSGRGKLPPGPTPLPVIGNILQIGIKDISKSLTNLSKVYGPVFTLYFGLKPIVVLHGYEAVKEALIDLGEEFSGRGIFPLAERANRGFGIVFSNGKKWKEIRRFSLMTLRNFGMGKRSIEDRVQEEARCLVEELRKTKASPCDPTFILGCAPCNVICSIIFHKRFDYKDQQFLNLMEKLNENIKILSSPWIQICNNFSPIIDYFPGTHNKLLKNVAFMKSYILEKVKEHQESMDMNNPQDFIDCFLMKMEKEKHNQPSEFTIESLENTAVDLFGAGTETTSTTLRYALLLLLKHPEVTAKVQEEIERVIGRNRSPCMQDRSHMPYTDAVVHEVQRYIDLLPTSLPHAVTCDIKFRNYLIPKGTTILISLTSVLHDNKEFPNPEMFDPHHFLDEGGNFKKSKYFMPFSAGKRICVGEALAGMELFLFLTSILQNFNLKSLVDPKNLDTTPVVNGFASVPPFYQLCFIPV
smiles,measurement,setting,value
Cc1c(CCOC(=O)c2ccc([N+](=O)[O-])cc2)sc[n+]1CC(=O)c1ccccc1,EC50,[1],5.96 µM (active)
CCOC(=O)CCP(=O)(O)C(O)c1ccc(OC)cc1 (configuration not stated),IC50,Leucine aminopeptidase,8.59 µM (active)
Cc1ccc(C(=O)Nc2nc(=O)n(C(=O)C3CC3)s2)cc1,IC50,Leucine aminopeptidase,19.3 µM (active)
CC(NCCC(Cc1ccccc1)c1ccco1)c1ccccc1 (configuration not stated),EC50,[1],1.68 µM (active)
O=C(NCCN1CCCC1)c1ccc2c(c1)N(Cc1cccc(Cl)c1)C(=O)c1ccccc1S2(=O)=O,IC50,[2],11.5 µM (active)
same,AC50,[3],> 195 µM (inactive)
CCCc1cc(=O)[nH]c(-n2nc3c(c2O)CCCC3)n1,IC50,[4],> 100 µM (inactive)
COc1ccccc1N1CCc2c(C)nc3c(OC)cccc3c21,EC50,[1],4.73 µM (active)
CCOc1cc(N2CCOCC2)c(OCC)cc1NC(C)C(=O)N1CCC(C)CC1 (configuration not stated),EC50,cells [5],> 350 µM (not active)
same,EC50,cells [6],> 350 µM (not active)
same,IC50,Large T antigen,17.1 µM (active)
COc1cc(C(=O)Oc2ccccc2/C=N/NC(=O)c2ccc(C)cc2)cc(OC)c1OC,EC50,cells [5],> 350 µM (not active)
same,AC50,Cytochrome P450 1A2,2.24 µM (inconclusive)
same,EC50,cells [6],> 350 µM (not active)
same,AC50,Cytochrome P450 2C9,316 nM (inconclusive)
CCN(CC)CCCNC(=O)CCC(=O)NNc1nc2ccccc2c2nc(C)nn12,EC50,[7],930 nM (active)
same,EC50,[8],160 µM (active)
same,IC50,[4],> 100 µM (inactive)
CCc1cc(C(=O)N/N=C/c2ccc(O)cc2O)c2ccccc2n1,EC50,cells [5],9.29 µM (active)
same,EC50,[9],7.63 µM (active)
same,EC50,cells [6],> 350 µM (not active)
same,EC50,[10],16.7 µM (active)
same,EC50,[11],13.3 µM (active)
Cc1cccc(-n2cc(CN3CCN(Cc4nccn4C)CC3)c(-c3cccc(F)c3)n2)c1,IC50,[2],13.5 µM (active)
CC(=O)C(=NNc1ccc(-n2ccc(C(F)(F)F)n2)cc1)C(C)=O,IC50,[12],2.57 µM (active)
Cc1ccc(Cn2ccc(NC(=O)C3C4CCC(C4)C3C(=O)O)n2)cc1 (configuration not stated),IC50,Leucine aminopeptidase,10.2 µM (active)
c1ccc(COC(CN2CCCCCC2)CN2CCCCCC2)cc1,EC50,[1],6.68 µM (active)
Cc1cc(C)cc(Oc2nc(-c3ccccc3)cc(C)c2S(C)(=O)=O)c1,IC50,[12],6.25 µM (not active)
Cc1ccc(OCCOc2cccc(C=C3C(=O)NC(=O)NC3=O)c2)c(C)c1,IC50,Genome polyprotein,35.5 µM (active)
OCC1(Cc2ccccc2)CCN(Cc2ccc(C(F)(F)F)cc2)CC1,EC50,[1],2.11 µM (active)
O=C(NC1(C(F)(F)F)Oc2cc(Cl)c(Cl)cc2O1)N1CCC2(CC1)OCCO2,IC50,[4],> 100 µM (inactive)
C#CCOc1ccc(/C=C2/C(=O)ON=C2C)cc1OCC,IC50,Genome polyprotein,> 100 µM (active)
